This is an account of results in patent publication US8461378B2, “Purification of fluoroalkanesulfonate salts” (E.I. du Pont de Nemours and Company, priority 2010, dated 2013).

This data set in a line: Solubility of TFESK in water and in aqueous K2SO3 solution. Type of data set: physicochemical. The source says:
Therefore, TFESK was selectively crystallized from sulfite solutions.

Take `O=S(=O)([O-])C(F)(F)C(F)F.[K+]` [TFESK, Potassium 1,1,2,2-tetrafluoroethanesulfonate]: the “solubility in 2M K2SO3 solution” value (2M K2SO3 solution) was 1-2 % by weight. In addition, for the setting “water at 0° C.”, the solubility in water turned out to be 25 % by weight.
